Like-named read-outs stand apart in the source and are kept apart here.
Legend:
human recombinant Btk = human recombinant Btk (Homo sapiens (Human), UniProt Q06187); experiment: Human Recombinant Btk enzyme assay; format: biochemical
Jak2 tyrosine kinase = Jak2 tyrosine kinase (Homo sapiens (Human), UniProt O60674); experiment: Jak2 tyrosine kinase assay; format: biochemical
[1] = system: CD69 expression on B cells in human whole blood; experiment: Whole blood assay of BCR-stimulated CD69 expression on B cells; format: cell-based; settings: BCR-stimulated, read-out: CD69 IC50 values

Chain of human recombinant Btk (Q06187 whole entry): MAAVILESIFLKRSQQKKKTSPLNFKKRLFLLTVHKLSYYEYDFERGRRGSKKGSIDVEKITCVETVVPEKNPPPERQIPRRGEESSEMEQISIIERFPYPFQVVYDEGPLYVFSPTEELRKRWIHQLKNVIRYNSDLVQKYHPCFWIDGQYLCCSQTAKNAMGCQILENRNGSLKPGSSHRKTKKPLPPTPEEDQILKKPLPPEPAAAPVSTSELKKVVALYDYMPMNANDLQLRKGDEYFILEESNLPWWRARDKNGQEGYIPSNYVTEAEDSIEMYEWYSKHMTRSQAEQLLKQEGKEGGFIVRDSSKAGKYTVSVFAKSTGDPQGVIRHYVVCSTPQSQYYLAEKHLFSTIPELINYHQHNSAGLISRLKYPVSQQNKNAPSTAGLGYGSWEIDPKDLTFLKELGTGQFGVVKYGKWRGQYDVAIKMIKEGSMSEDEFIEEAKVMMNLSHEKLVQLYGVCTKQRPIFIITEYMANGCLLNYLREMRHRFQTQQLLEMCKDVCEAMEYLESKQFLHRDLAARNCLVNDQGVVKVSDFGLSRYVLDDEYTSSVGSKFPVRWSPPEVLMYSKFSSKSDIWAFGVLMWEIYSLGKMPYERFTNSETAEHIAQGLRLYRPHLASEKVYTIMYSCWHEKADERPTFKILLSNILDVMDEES
Chain of Jak2 tyrosine kinase (O60674 whole entry): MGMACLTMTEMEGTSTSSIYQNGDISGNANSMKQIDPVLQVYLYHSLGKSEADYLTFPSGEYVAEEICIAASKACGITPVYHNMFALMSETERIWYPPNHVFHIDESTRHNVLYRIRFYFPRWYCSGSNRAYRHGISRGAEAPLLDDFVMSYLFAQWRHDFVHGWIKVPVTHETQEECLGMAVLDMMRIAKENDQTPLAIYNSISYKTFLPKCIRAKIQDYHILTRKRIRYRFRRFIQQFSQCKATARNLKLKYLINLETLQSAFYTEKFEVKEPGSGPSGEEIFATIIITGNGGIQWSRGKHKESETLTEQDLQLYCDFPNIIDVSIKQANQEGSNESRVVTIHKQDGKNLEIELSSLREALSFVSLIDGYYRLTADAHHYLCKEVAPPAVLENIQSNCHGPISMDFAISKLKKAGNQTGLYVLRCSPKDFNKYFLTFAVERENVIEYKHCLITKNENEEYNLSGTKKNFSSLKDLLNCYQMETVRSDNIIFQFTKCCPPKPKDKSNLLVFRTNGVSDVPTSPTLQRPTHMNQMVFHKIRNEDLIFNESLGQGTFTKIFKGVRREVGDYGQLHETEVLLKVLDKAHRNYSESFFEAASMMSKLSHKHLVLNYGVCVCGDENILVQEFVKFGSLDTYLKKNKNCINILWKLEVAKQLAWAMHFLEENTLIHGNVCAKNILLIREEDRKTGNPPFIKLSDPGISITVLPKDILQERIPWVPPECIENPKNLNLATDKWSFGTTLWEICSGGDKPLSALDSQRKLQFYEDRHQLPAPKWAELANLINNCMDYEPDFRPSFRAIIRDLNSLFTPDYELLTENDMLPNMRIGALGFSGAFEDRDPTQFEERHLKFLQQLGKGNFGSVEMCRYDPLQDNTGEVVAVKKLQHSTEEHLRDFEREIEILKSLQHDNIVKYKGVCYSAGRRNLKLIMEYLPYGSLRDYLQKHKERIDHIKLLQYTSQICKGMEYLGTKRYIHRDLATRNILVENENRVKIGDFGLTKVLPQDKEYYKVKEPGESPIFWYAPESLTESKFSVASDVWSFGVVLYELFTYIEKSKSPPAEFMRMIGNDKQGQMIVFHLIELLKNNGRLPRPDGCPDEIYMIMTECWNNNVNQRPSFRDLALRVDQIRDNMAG

Row | Structure (SMILES) | IC50 (human recombinant Btk; read-out: Btk IC50 value) [nM] | IC50 (Jak2 tyrosine kinase) [nM] | Ratio of Jak2/Btk IC50 values (Jak2 tyrosine kinase; selectivity of Btk over Jak2) | IC50 [1] [nM] | IC50 ([1]; Homo sapiens, B-cell) [nM] | IC50 (human recombinant Btk; human recombinant Btk 1 nM, ATP 20 μM, read-out: Btk IC50) [nM] | Ratio of Jak2/Btk IC50 values (Jak2 tyrosine kinase; Jak2 IC50 divided by Btk IC50, larger value = more selective for Btk)
1 | [2H]C([2H])([2H])n1c(=O)n(-c2cccc(-c3c(F)cc(C(N)=O)c4[nH]c5c(c34)CC[C@H](C(C)(C)O)C5)c2C)c(=O)c2cccc(F)c21 (single isomer, unassigned) [Example 62] | 0.41 | > 2000 | >4900 | – | – | – | –
2 | Cc1c(-c2c(F)cc(C(N)=O)c3[nH]c4c(c23)CC[C@H](C(C)(C)O)C4)cccc1-n1c(=O)cc2c(F)cccn2c1=O (single isomer, unassigned) [Example 69] | 0.84 | 9500 | 11000 | 150 | – | – | –
3 | Cc1c(-c2c(C#N)cc(C(N)=O)c3[nH]c4cc(C(C)(C)O)ccc4c23)cccc1-n1c(=O)c2cccc(F)c2n(C)c1=O (single isomer, unassigned) [Example 16] | 0.27 | 1900 | – | 120 | – | – | –
4 | Cc1c(-c2c(F)cc(C(N)=O)c3[nH]c4c(c23)CC[C@H](C(C)(C)O)C4)cccc1-n1c(=O)cc2c(F)cccn2c1=O (single isomer, unassigned) [Example 68] | 0.56 | 350 | 630 | – | – | – | –
5 | Cc1nc(C(N)=O)c2[nH]c3cc(C(C)(C)O)ccc3c2c1-c1cccc(-n2cnc3ccccc3c2=O)c1C [Comparative Example 76, 7-(2-Hydroxypropan-2-yl)-3-methyl-4-(2-methyl-3-(4-oxoquinazolin-3(4H)-yl)phenyl)-9H-pyrido[3,4-b]indole-1-carboxamide, reference compound] | 6.9 | 200 | 29 | – | – | 6.9 | 29
6 | Cc1c(-c2c(F)cc(C(N)=O)c3[nH]c4c(c23)CC[C@H](C(C)(C)O)C4)cccc1-n1c(=O)[nH]c2c(Cl)cccc2c1=O (single isomer, unassigned) [Example 63] | 0.45 | 11000 | 24000 | – | – | – | –
7 | Cc1c(-c2c(F)cc(C(N)=O)c3[nH]c4c(c23)CC[C@@H](C(C)(C)O)C4)cccc1-n1c(=O)c2cccc(F)c2n(C)c1=O (atropisomer, axis not shown) [Example 27, 6-Fluoro-5-(R)-(3-(S)-(8-fluoro-1-methyl-2,4-dioxo-1,2-dihydroquinazolin-3(4H)-yl)-2-methylphenyl)-2-(R)-(2-hydroxypropan-2-yl)-2,3,4,9-tetrahydro-1H-carbazole-8-carboxamide] | 2.2 | > 2000 | – | 150 | – | – | –
8 | Cc1c(-c2c(C#N)cc(C(N)=O)c3[nH]c4cc(C(C)(C)O)ccc4c23)cccc1-n1c(=O)c2cccc(F)c2n(C)c1=O (single isomer, unassigned) [Example 15] | 1 | 2400 | 2400 | – | 170 | – | –
9 | Cc1c(-c2c(F)cc(C(N)=O)c3[nH]c4cc(CCO)ccc4c23)cccc1-n1c(=O)cc2c(F)cccn2c1=O [Example 70] | 0.59 | 550 | 930 | – | – | – | –
10 | Cc1c(-c2c(F)cc(C(N)=O)c3[nH]c4c(c23)CC[C@H](C(C)(C)O)C4)cccc1-n1c(=O)c2cccc(F)c2n(C)c1=O (atropisomer, axis not shown) [Example 28, 6-Fluoro-5-(R)-(3-(S)-(8-fluoro-1-methyl-2,4-dioxo-1,2-dihydroquinazolin-3(4H)-yl)-2-methylphenyl)-2-(S)-(2-hydroxypropan-2-yl)-2,3,4,9-tetrahydro-1H-carbazole-8-carboxamide] | 0.54 | 32000 | 59000 | – | – | – | –

The remaining lines, values ahead:

Row | IC50 (human recombinant Btk; read-out: Btk IC50 value) [nM] | IC50 (Jak2 tyrosine kinase) [nM] | Ratio of Jak2/Btk IC50 values (Jak2 tyrosine kinase; selectivity of Btk over Jak2) | IC50 [1] [nM] | IC50 ([1]; Homo sapiens, B-cell) [nM] | IC50 (human recombinant Btk; human recombinant Btk 1 nM, ATP 20 μM, read-out: Btk IC50) [nM] | Ratio of Jak2/Btk IC50 values (Jak2 tyrosine kinase; Jak2 IC50 divided by Btk IC50, larger value = more selective for Btk) | Structure (SMILES)
11 | 0.34 | 300 | 880 | 53 | – | – | – | Cc1c(-c2c(Cl)cc(C(N)=O)c3[nH]c4cc(C(C)(C)O)ccc4c23)cccc1-n1c(=O)cc2sccn2c1=O (single isomer, unassigned) [Example 38]
12 | 0.31 | 370 | 1200 | 130 | – | – | – | Cc1c(-c2c(Cl)cc(C(N)=O)c3[nH]c4cc(C(C)(C)O)ccc4c23)cccc1-n1c(=O)cc2sccn2c1=O (single isomer, unassigned) [Example 39]
13 | 0.25 | 800 | 3200 | – | 31 | – | – | Cc1c(-c2c(Cl)cc(C(N)=O)c3[nH]c4cc(C(C)(C)O)ccc4c23)cccc1-n1c(=O)cc2c(F)cccn2c1=O (single isomer, unassigned) [Example 35]
14 | 0.28 | 450 | 1600 | 28 | – | – | – | Cc1c(-c2c(Cl)cc(C(N)=O)c3[nH]c4cc(C(C)(C)O)ccc4c23)cccc1-n1c(=O)cc2c(F)cccn2c1=O (single isomer, unassigned) [Example 36]
15 | 0.46 | 830 | 1800 | – | 19 | – | – | Cc1c(-c2c(F)cc(C(N)=O)c3[nH]c4cc(C(C)(C)O)ccc4c23)cccc1-n1c(=O)cc2c(F)cccn2c1=O (single isomer, unassigned) [Example 40]
16 | 1.2 | – | – | – | 20 | – | – | Cc1c(-c2c(Cl)cc(C(N)=O)c3[nH]c4cc(C(C)(C)O)ccc4c23)cccc1-n1c(=O)[nH]c2c(F)cccc2c1=O (single isomer, unassigned) [Example 14]
17 | 0.22 | – | – | – | 64 | – | – | Cc1c(-c2c(F)cc(C(N)=O)c3[nH]c4cc(C(C)(C)O)ccc4c23)cccc1-n1c(=O)cc2c(Cl)cccn2c1=O (single isomer, unassigned) [Example 30]
18 | 0.85 | 370 | 440 | – | 98 | – | – | Cc1c(-c2c(Cl)cc(C(N)=O)c3[nH]c4cc(C(C)(C)O)ccc4c23)cccc1-n1c(=O)cc2c(F)cccn2c1=O [Example 34, 3-Chloro-4-(3-(5-fluoro-1,3-dioxo-1H-pyrido[1,2-c]pyrimidin-2(3H)-yl)-2-methylphenyl)-7-(2-hydroxypropan-2-yl)-9H-carbazole-1-carboxamide]
19 | 0.19 | – | – | 37 | – | – | – | Cc1c(-c2c(F)cc(C(N)=O)c3[nH]c4cc(C(C)(C)O)ccc4c23)cccc1-n1c(=O)cc2c(Cl)cccn2c1=O (single isomer, unassigned) [Example 31]
20 | 1.1 | 1500 | 1400 | 100 | – | – | – | COc1ccc2c(=O)n(-c3cccc(-c4c(Cl)cc(C(N)=O)c5[nH]c6cc(C(C)(C)O)ccc6c45)c3C)c(=O)n(C)c2c1 (single isomer, unassigned) [Example 6]
21 | 2.1 | > 2000 | >950 | – | 170 | – | – | COc1ccc2c(=O)n(-c3cccc(-c4c(Cl)cc(C(N)=O)c5[nH]c6cc(C(C)(C)O)ccc6c45)c3C)c(=O)n(C)c2c1 (single isomer, unassigned) [Example 5]
22 | 2.9 | – | – | – | 140 | – | – | Cc1c(-c2c(Cl)cc(C(N)=O)c3[nH]c4cc(C(C)(C)O)ccc4c23)cccc1-n1c(=O)[nH]c2c(F)cccc2c1=O [Example 13, 3-Chloro-4-(3-(8-fluoro-2,4-dioxo-1,2-dihydroquinazolin-3(4H)-yl)-2-methylphenyl)-7-(2-hydroxypropan-2-yl)-9H-carbazole-1-carboxamide]
23 | 0.91 | 630 | 690 | – | – | – | – | COc1cccn2c(=O)n(-c3cccc(-c4c(Cl)cc(C(N)=O)c5[nH]c6cc(C(C)(C)O)ccc6c45)c3C)c(=O)cc12 [Example 37, 3-Chloro-7-(2-hydroxypropan-2-yl)-4-(3-(5-methoxy-1,3-dioxo-1H-pyrido[1,2-c]pyrimidin-2(3H)-yl)-2-methylphenyl)-9H-carbazole-1-carboxamide]
24 | 0.2 | 800 | 4000 | 22 | – | – | – | Cc1c(-c2c(F)cc(C(N)=O)c3[nH]c4cc(C(C)(C)O)ccc4c23)cccc1-n1c(=O)cc2c(F)cccn2c1=O (single isomer, unassigned) [Example 41]

Reference: patent US9334290B2, “Substituted tetrahydrocarbazole and carbazole carboxamide compounds” (Bristol-Myers Squibb Company, priority 2013, dated 2016)
